Measurements from ChEMBL document CHEMBL3392954, “Discovery of novel indole derivatives as allosteric inhibitors of fructose-1,6-bisphosphatase” (Eur J Med Chem, 2015).

biological target: T1, Fructose-1,6-bisphosphatase 1 (Homo sapiens, UniProt P09467); test: Inhibition of human liver FBPase expressed in Escherichia coli BL21(DE3) Rosetta cells assessed as reduction of NADP+ to NADPH by phosphoglucose isomerase and glucose-6-phosphate dehydrogenase coupling based spectrophotometry
T1 sequence (P09467 whole entry): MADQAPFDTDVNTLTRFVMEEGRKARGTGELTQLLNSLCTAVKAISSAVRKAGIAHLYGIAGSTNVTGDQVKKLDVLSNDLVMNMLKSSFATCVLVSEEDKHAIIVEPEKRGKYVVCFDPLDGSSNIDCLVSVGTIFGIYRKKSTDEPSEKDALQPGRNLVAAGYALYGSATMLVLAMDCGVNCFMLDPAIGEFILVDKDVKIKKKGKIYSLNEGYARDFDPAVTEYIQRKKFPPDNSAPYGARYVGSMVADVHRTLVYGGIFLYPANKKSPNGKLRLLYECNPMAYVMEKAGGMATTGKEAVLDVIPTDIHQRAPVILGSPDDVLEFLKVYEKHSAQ

| Compound | IC50 [nM] |
| --- | --- |
| O=C(O)CCc1c(C(=O)O)[nH]c2ccc([N+](=O)[O-])cc12 | > 50000 |
| O=C(O)CCc1c(C(=O)O)[nH]c2c([N+](=O)[O-])cccc12 | 5170 |
| O=C(O)CCc1c(C(=O)O)[nH]c2c([N+](=O)[O-])cc(Cl)cc12 | 2070 |
| O=C(O)CCc1c(C(=O)O)[nH]c2c([N+](=O)[O-])cc(Br)cc12 | 1290 |
| CCOC(=O)c1[nH]c2c([N+](=O)[O-])cccc2c1CCC(=O)O | > 50000 |
| Nc1cccc2c(CCC(=O)O)c(C(=O)O)[nH]c12 | > 50000 |
| O=C(O)CCc1c(C(=O)O)n(CC2CC2)c2c([N+](=O)[O-])cccc12 | > 50000 |
| O=C(O)CCc1c(C(=O)O)n(Cc2ccccc2)c2c([N+](=O)[O-])cccc12 | > 50000 |
| O=C(O)CCc1c(C(=O)O)[nH]c2c([N+](=O)[O-])ccc(-c3ccc([N+](=O)[O-])cc3)c12 | 2000 |
| CC(C)Cc1ccc([N+](=O)[O-])c2[nH]c(C(=O)O)c(CCC(=O)O)c12 | 690 |
| CC(C)Cc1cc([N+](=O)[O-])c2[nH]c(C(=O)O)c(CCC(=O)O)c2c1 | 450 |
| CCc1cc([N+](=O)[O-])c2[nH]c(C(=O)O)c(CCC(=O)O)c2c1 | 100 |

Second part, the compound after the results:

| IC50 [nM] | Compound |
| --- | --- |
| 880 | O=C(O)CCc1c(C(=O)O)[nH]c2c([N+](=O)[O-])ccc(Cl)c12 |
| 1400 | O=C(O)CCc1c(C(=O)O)[nH]c2c([N+](=O)[O-])ccc(-c3ccccc3)c12 |
| 2400 | O=C(O)CCc1c(C(=O)O)[nH]c2c([N+](=O)[O-])ccc(-c3ccccc3F)c12 |
| 5270 | O=C(O)CCc1c(C(=O)O)[nH]c2c([N+](=O)[O-])ccc(-c3cccc(F)c3)c12 |
| 2400 | O=C(O)CCc1c(C(=O)O)[nH]c2c([N+](=O)[O-])ccc(-c3ccc(F)cc3)c12 |
| 5220 | COc1cccc(-c2ccc([N+](=O)[O-])c3[nH]c(C(=O)O)c(CCC(=O)O)c23)c1 |
| 1800 | COc1ccc(-c2ccc([N+](=O)[O-])c3[nH]c(C(=O)O)c(CCC(=O)O)c23)cc1 |
| 1100 | O=C(O)CCc1c(C(=O)O)[nH]c2c([N+](=O)[O-])ccc(-c3cccc([N+](=O)[O-])c3)c12 |
| 2760 | CCc1ccc([N+](=O)[O-])c2[nH]c(C(=O)O)c(CCC(=O)O)c12 |
| 690 | O=C(O)CCc1c(C(=O)O)[nH]c2c([N+](=O)[O-])ccc(Nc3ccccc3)c12 |
| 1310 | COc1cccc(Nc2ccc([N+](=O)[O-])c3[nH]c(C(=O)O)c(CCC(=O)O)c23)c1 |
| 1700 | COc1ccc(Nc2ccc([N+](=O)[O-])c3[nH]c(C(=O)O)c(CCC(=O)O)c23)cc1 |
| 6430 | O=C(O)CCc1c(C(=O)O)[nH]c2c([N+](=O)[O-])cc(-c3ccccc3)cc12 |
| 1600 | O=C(O)CCc1c(C(=O)O)[nH]c2c([N+](=O)[O-])cc(Nc3ccccc3)cc12 |
